Laboratory results from article PMC11413853, “Discovery of VU6007496: Challenges in the Development of an M1 Positive Allosteric Modulator Backup Candidate” (ACS Chemical Neuroscience, 2024).

How the values were obtained:
[1] = test system: Neuropeptide Y Y2; test: Eurofins radioligand binding; set-up: species or system Human; conditions: specific binding
[2] = test system: Dopamine D1; test: Eurofins radioligand binding; set-up: species or system Human; conditions: specific binding
[3] = test system: T1, hERG; test: Ion channel current (Charles River Study 200609.WVN); format: cell-based; conditions: human, n 3
T1 construct: Charles River
From the text: Table S2. Effects of VU6007496 on Ion Channel Current (Charles River Study 200609.WVN)
Ion Channel Conc Mean % Standard Standard n Individual Data
(μM) Inhibition Deviation Error Points (% Inhibition)

[4] = test system: Serotonin (5-HT3); test: Eurofins radioligand binding; set-up: species or system Human; conditions: specific binding
[5] = test system: Calcium Channel L-Type, Benzothiazepine; test: Eurofins radioligand binding; set-up: species or system Rat; conditions: specific binding
[6] = test system: Tachykinin NK1; test: Eurofins radioligand binding; set-up: species or system Human; conditions: specific binding
[7] = test system: CYP2B6; test: CYP induction (mRNA) in cryopreserved human hepatocytes, CYP2B6; format: in vitro ADME; conditions: three donors
From the text: (§1) To advance 11 as a candidate and into IND-enabling studies, we next needed to better understand its CYP profile to minimize drug–drug interactions in the clinic. […] We were pleased to see the contribution of another CYP beyond 3A4 for the metabolism of 11.[21] In parallel, we investigated the ability of PAM 11 to induce the expression of CYP450s (measuring mRNA) in cryopreserved human hepatocytes from three separate donors.

[8] = test system: Adenosine A1; test: Eurofins radioligand binding; set-up: species or system Human; conditions: specific binding
[9] = test system: Adrenergic α1A; test: Eurofins radioligand binding; set-up: species or system Human; conditions: specific binding
[10] = test system: Serotonin (5-HT1A); test: Eurofins radioligand binding; set-up: species or system Human; conditions: specific binding
[11] = test system: Transporter, Dopamine (DAT); test: Eurofins radioligand binding; set-up: species or system Human; conditions: specific binding
[12] = test system: Transporter, GABA; test: Eurofins radioligand binding; set-up: species or system Rat; conditions: specific binding
[13] = test system: Neuropeptide Y Y1; test: Eurofins radioligand binding; set-up: species or system Human; conditions: specific binding
[14] = test system: Adrenergic β2; test: Eurofins radioligand binding; set-up: species or system Human; conditions: specific binding
[15] = test system: Adenosine A3; test: Eurofins radioligand binding; set-up: species or system Human; conditions: specific binding
[16] = test system: Potassium Channel [KATP]; test: Eurofins radioligand binding; set-up: species or system Hamster; conditions: specific binding
[17] = test system: CYP3A4; test: CYP induction (mRNA) in cryopreserved human hepatocytes, CYP3A4; format: in vitro ADME; conditions: three donors
From the text: as §1

[18] = test system: Adrenergic α2A; test: Eurofins radioligand binding; set-up: species or system Human; conditions: specific binding
[19] = Hepatocyte MET ID, monkey; format: in vitro ADME; conditions: 4-h incubation
From the text: More concerning were the results generated via outsourced multispecies hepatocyte MET ID, which were drastically different than the liver S9MET ID. The extent of metabolism for VU6007496 with rat, dog, monkey and human hepatocytes was 64.7, 51.5, 63.9 and 99.5%, respectively (Figure 8). […] In human hepatocytes, PAM 11 was metabolized primarily to Metabolite A (24), the result of oxidative N-demethylation of the southern pyrazole. The other minor metabolites were oxidation on the tetrahydropyran moiety and included ring opening (Metabolite F, 25).[21]

[20] = test system: 68 GPCRs, ion channels and transporters; test: Lead Profiling Screen, radioligand displacement (panel summary); format: binding; conditions: 10 μM; all 68 targets
Protocol: In a 4-strain Ames assay, with and without S9, both 11 and 12 were negative.
Table S1. Eurofins Lead Profiling Screen Data
This is a radioligand binding panel of 67 targets including GPCRs, ion channels, transporters and nuclear hormones. Biochemical assay results are presented as the percent inhibition of specific binding at a 10 μM concentration of VU6007496 (Compound 11).
Target/Protein Species % Inhibition at
Androgen (Testosterone) Human -24
Calcium Channel L-Type, Rat 12
Calcium Channel L-Type, Rat -8
Calcium Channel N-Type Rat 8
Epidermal Growth Factor (EGF) Human 5
GABAA, Flunitrazepam, Central Rat -3
GABAA, Muscimol, Central Rat -1
Glutamate, Kainate Rat -19
Glutamate, NMDA, Agonism Rat 0
Glutamate, NMDA, Glycine Rat 0
Glutamate, NMDA, Phencyclidine Rat 7
Imidazoline I2, Central Rat -9

[21] = test system: Adrenergic α1D; test: Eurofins radioligand binding; set-up: species or system Human; conditions: specific binding
[22] = test system: Leukotriene, Cysteinyl CysLT1; test: Eurofins radioligand binding; set-up: species or system Human; conditions: specific binding

For `Cn1ccc(-c2ccc(Cc3cc(C(=O)NC4CCOCC4)nc4ccn(C)c34)cc2)n1` [compound 11], the “% Inhibition at 10 µM” value [1] was 31%, the “% Inhibition at 10 µM” value [2] was 5% and the inhibition at 10 µM [3] was 2.6%. For the same molecule, the “% Inhibition at 10 µM” value [4] was -3%, the “% Inhibition at 10 µM” value [5] was 12% and the “% Inhibition at 10 µM” value [6] was 8%. For the same molecule, the “CYP2B6 induction (mRNA)” value [7] was ~8 fold, the “% Inhibition at 10 µM” value [8] was 10% and the “% Inhibition at 10 µM” value [9] was -1%. The “% Inhibition at 10 µM” value [10] was 7%, the “% Inhibition at 10 µM” value [11] was 13% and the “% Inhibition at 10 µM” value [12] was -17%. For the same molecule, the “% Inhibition at 10 µM” value [13] was -10%, the “% Inhibition at 10 µM” value [14] was 7% and the “% Inhibition at 10 µM” value [15] was 38%. For the same molecule, the “% Inhibition at 10 µM” value [16] was 11%, the “CYP3A4 induction (mRNA)” value [17] was ~21 fold and the “% Inhibition at 10 µM” value [18] was -7%. The “extent of metabolism, monkey hepatocytes” value [19] was 63.9%, the “radioligand displacement, Lead Profiling Screen” value [20] was < 50% and the “% Inhibition at 10 µM” value [21] was -6%. For the same molecule, the “% Inhibition at 10 µM” value [22] was 3%.
